This passage reports refractive index and mass density results from the NIST ThermoML archive (doi:10.1021/je0495583).

Data set [1] is described as follows: refractive index (Na D-line) (dimensionless). Conditions: 298.15 K; 101.33 kPa; Liquid; Standard Abbe refractometry.
The conditions of data set [2]: 293.15 K; 101.33 kPa; Liquid; Pycnometric method.

± gives the expanded uncertainty stated by the source.

`Cc1ccccc1` [toluene]: in data set [1], the refractive index turned out to be 1.4941 ± 0.0008. Moreover, the mass density in data set [2] is given as 866.2 ± 0.9 kg/m3.
In the same order, the values of `CCC(C)(C)OC` [2-methoxy-2-methylbutane] are 1.3867 ± 0.0008 and 770.6 ± 0.8 kg/m3.
In the same order, the values of `CCCCCC` [hexane] are 1.3722 ± 0.0007 and 659.4 ± 0.6 kg/m3.
The corresponding values for `COC(C)(C)C` [2-methoxy-2-methylpropane] are 1.366 ± 0.0008 and 740.5 ± 0.8 kg/m3.
Consider `C1CCCCC1` [cyclohexane], for which, in data set [1], the refractive index was 1.4236 ± 0.0008. The mass density in data set [2] was 778.4 ± 0.8 kg/m3.
